Results published in PubChem BioAssay AID1845202 (Molecular Pharmacology Branch, DTP, NCI, 2023).

Tested on: DMS 114 tumor spheroids, viability % test/control
Assay: Anticancer human tumor DMS 114 cell line growth inhibition;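 note: spheroids exposed to compounds for 7 days before read-out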;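 for viability, T/C: luminescence used as a proxy for viable cells; 100% = DMSO vehicle control viability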
Details: spheroids with HUVEC and MSC; for IC50: curve of first compound; for viability, T/C: stronger effect = lower value; active = viability on the fitted dose curve at most 10% of control; inactive = the rest
Excerpt: Multicellular complex tumor spheroid response to DNA repair inhibitors in combination with DNA-damaging drugs
This study explores the anticancer activities of DNA-damaging drugs and inhibitors of DNA damage repair, both as single agents and in combinations. Complex tumor spheroids comprised of malignant cells, endothelial cells and mesenchymal stem cells served as an in vitro model for human solid tumors. This model system incorporates physiologically relevant features and patient-derived or established malignant cell lines with clinically relevant genetic alterations from many tumor types. Twenty-six patient-derived or established malignant cell lines were evaluated representing sarcoma, melanoma, small cell lung cancer (SCLC), non-small cell lung cancer (NSCLC), as well as bladder, ovarian and pancreatic cancers. The concentration ranges selected for each drug and investigational agent were based upon clinically achievable concentrations if the clinical Cmax of the agent was known.
Compounds. The drugs and compounds olaparib (NSC753686), talazoparib (NSC767125), berzosertib (NSC777718), elimusertib (NSC800525), nedisertib (NSC802822), VX-984 (NSC792969), AZD-1390 (NSC803789), temozolomide (NSC362856), topotecan (NSC609699), trabectedin (NSC813783), staurosporine (NSC755774), and gemcitabine (NSC613327) were obtained from the National Cancer Institute (NCI) Developmental Therapeutics Program Chemical Repository. The FDA-approved anticancer drug set is available from the Developmental Therapeutics Program at https://dtp.cancer.gov/organization/dscb/obtaining/available_plates.htm. […] The stock solutions were prepared in dimethyl sulfoxide (DMSO, Sigma-Aldrich, St. Louis, MO, cat. D2650) at 400-fold the tested concentration and stored at -70 degrees C. Prior to their use, the stock solutions were diluted in fresh medium and the final DMSO concentration in the assay was 0.25% (v/v). All drugs and investigational agents were tested over a range starting from a high concentration at or near the clinical Cmax and decreasing in half-log increments. If the clinical Cmax for an agent had not been determined, the highest concentration tested was 10 microM.
Cell Lines. The patient-derived cancer cell (PDC) lines: 156681-154-R-J1-PDC, 283228-195-R-J1-PDC, 287954-098-R-J1-PDC, 292921-168-R-J2-PDC, 349418-098-R-PDC, 425362-245-T-J1-PDC, 556581-035-R-J1-PDC, and BL0293-F563-PDC were received from the NCI Patient-Derived Models Repository (PDMR, https://pdmr.cancer.gov). The established cell lines HS-SY-2 (RRID:CVCL_8719), MPNST, and SYO-1 (RRID:CVCL_7146) were obtained from the Sloan Kettering Institute. The alveolar soft parts sarcoma cell line ASPS-1 (RRID:CVCL_S738) was established at the NCI and grown from internal seed stocks. The following established cell lines were purchased from the American Type Culture Collection (ATCC, Manassas, VA): G-401 (ATCC, cat. CRL-1441, RRID:CVCL_0270), SW982 (ATCC, cat. HTB-93, RRID:CVCL_1734), VA-ES-BJ (ATCC, cat. CRL-2138, RRID:CVCL_1785), NCI-H719 (ATCC, cat. CRL-5837, RRID:CVCL_1582), NCI-H196 (ATCC, cat. CRL-5823, RRID:CVCL_1509), NCI-H841 (ATCC, cat. CRL-5845, RRID:CVCL_1595), NCI-H1618 (ATCC, cat. CRL-5879, RRID:CVCL_1480), NCI-H1876 (ATCC, cat. CRL-5902, RRID:CVCL_1503), DMS 114 (ATCC, cat. CRL-2066; RRID:CVCL_1174), NCI-H211 (ATCC, cat. CRL-5824; RRID:CVCL_1529), and SW 1271 (ATCC, cat. CRL-2177, RRID:CVCL_1716). The small cell lung cancer cell line COR-L88 was purchased from Sigma-Aldrich (cat. 92031917-1VL, RRID:CVCL_1141). The non-small cell lung cancer cell lines NCI-H226 (RRID:CVCL_1544) and NCI-H322M (RRID:CVCL_1557) were established at the NCI and grown from internal seed stocks. Pooled donor human umbilical vein endothelial cells (HUVEC, Lonza, cat. CC-2519) and human mesenchymal stem cells (hMSC, Lonza, cat. PT-2501) were purchased from Lonza (Walkersville, MD).
Cell Culture. All cells were maintained in an incubator at 37 degrees C and 5% CO2 with 95% humidity. […]

Cc1cc(C)c(CNC(=O)c2cc(-c3ccc(CN4CCOCC4)cc3)cc3c2cnn3C2CCCC2)c(=O)[nH]1 + CC[C@@]1(O)C(=O)OCc2c1cc1n(c2=O)Cc2cc3c(CN(C)C)c(O)ccc3nc2-1
> 10000 nM: IC50 (second compound 0.003 µM) | IC50 (second compound 0.00949 µM)
< 31.6 nM: IC50 (second compound 0.03 µM) | IC50 (second compound 0.0949 µM) | IC50 (second compound 0.3 µM)
inactive: viability, T/C (second compound 0.003 µM, first compound 0.0316 µM) 112% | viability, T/C (second compound 0.003 µM, first compound 0.1 µM) 117% | viability, T/C (second compound 0.003 µM, first compound 0.316 µM) 108% | viability, T/C (second compound 0.003 µM, first compound 1 µM) 106% | viability, T/C (second compound 0.003 µM, first compound 3.16 µM) 98.2% | viability, T/C (second compound 0.003 µM, first compound 10 µM) 59.6% | viability, T/C (second compound 0.00949 µM, first compound 0.0316 µM) 96.2% | viability, T/C (second compound 0.00949 µM, first compound 0.1 µM) 105% | viability, T/C (second compound 0.00949 µM, first compound 0.316 µM) 95.4% | viability, T/C (second compound 0.00949 µM, first compound 1 µM) 97.1% | viability, T/C (second compound 0.00949 µM, first compound 3.16 µM) 84.9% | viability, T/C (second compound 0.00949 µM, first compound 10 µM) 58.9% | viability, T/C (second compound 0.03 µM, first compound 0.0316 µM) 33.3% | viability, T/C (second compound 0.03 µM, first compound 0.1 µM) 39.5% | viability, T/C (second compound 0.03 µM, first compound 0.316 µM) 28.3% | viability, T/C (second compound 0.03 µM, first compound 1 µM) 35.5% | viability, T/C (second compound 0.03 µM, first compound 3.16 µM) 32.1% | viability, T/C (second compound 0.03 µM, first compound 10 µM) 30.7% | viability, T/C (second compound 0.0949 µM, first compound 0.0316 µM) 16% | viability, T/C (second compound 0.0949 µM, first compound 0.1 µM) 15.5% | viability, T/C (second compound 0.0949 µM, first compound 0.316 µM) 14.8% | viability, T/C (second compound 0.0949 µM, first compound 1 µM) 16% | viability, T/C (second compound 0.0949 µM, first compound 3.16 µM) 17.2% | viability, T/C (second compound 0.0949 µM, first compound 10 µM) 15.5% | viability, T/C (second compound 0.3 µM, first compound 0.0316 µM) 9.14% | viability, T/C (second compound 0.3 µM, first compound 0.1 µM) 9.67% | viability, T/C (second compound 0.3 µM, first compound 0.316 µM) 9.76% | viability, T/C (second compound 0.3 µM, first compound 1 µM) 10.1% | viability, T/C (second compound 0.3 µM, first compound 3.16 µM) 12.1% | viability, T/C (second compound 0.3 µM, first compound 10 µM) 17.6%

Cc1sc2c(c1C)C(c1ccc(Cl)cc1)=NC(CC(=O)Nc1ccc(O)cc1)c1nnc(C)n1-2 (stereo not given) + CC[C@@]1(O)C(=O)OCc2c1cc1n(c2=O)Cc2cc3c(CN(C)C)c(O)ccc3nc2-1
56.4 nM: IC50 (second compound 0.00949 µM)
inactive: viability, T/C (second compound 0.003 µM, first compound 0.00949 µM) 96.7% | viability, T/C (second compound 0.003 µM, first compound 0.03 µM) 97.2% | viability, T/C (second compound 0.003 µM, first compound 0.0949 µM) 45.5% | viability, T/C (second compound 0.003 µM, first compound 0.3 µM) 18.9% | viability, T/C (second compound 0.00949 µM, first compound 0.00949 µM) 85% | viability, T/C (second compound 0.00949 µM, first compound 0.03 µM) 67.4% | viability, T/C (second compound 0.00949 µM, first compound 0.0949 µM) 35.9% | viability, T/C (second compound 0.00949 µM, first compound 0.3 µM) 12.1% | viability, T/C (second compound 0.03 µM, first compound 0.00949 µM) 24.8% | viability, T/C (second compound 0.03 µM, first compound 0.03 µM) 19.4% | viability, T/C (second compound 0.03 µM, first compound 0.0949 µM) 13.1% | viability, T/C (second compound 0.0949 µM, first compound 0.00949 µM) 11.7%
< 9.49 nM: IC50 (second compound 0.03 µM) | IC50 (second compound 0.0949 µM) | IC50 (second compound 0.3 µM)
active: viability, T/C (second compound 0.003 µM, first compound 0.949 µM) 7.67% | viability, T/C (second compound 0.003 µM, first compound 3 µM) 4.78% | viability, T/C (second compound 0.00949 µM, first compound 0.949 µM) 5.26% | viability, T/C (second compound 0.00949 µM, first compound 3 µM) 3.47% | viability, T/C (second compound 0.03 µM, first compound 0.3 µM) 8.01% | viability, T/C (second compound 0.03 µM, first compound 0.949 µM) 3.14% | viability, T/C (second compound 0.03 µM, first compound 3 µM) 1.45% | viability, T/C (second compound 0.0949 µM, first compound 0.03 µM) 9.99% | viability, T/C (second compound 0.0949 µM, first compound 0.0949 µM) 5.31% | viability, T/C (second compound 0.0949 µM, first compound 0.3 µM) 2.68% | viability, T/C (second compound 0.0949 µM, first compound 0.949 µM) 1.52% | viability, T/C (second compound 0.0949 µM, first compound 3 µM) 0.93% | viability, T/C (second compound 0.3 µM, first compound 0.00949 µM) 5.77% | viability, T/C (second compound 0.3 µM, first compound 0.03 µM) 4.7% | viability, T/C (second compound 0.3 µM, first compound 0.0949 µM) 3.42% | viability, T/C (second compound 0.3 µM, first compound 0.3 µM) 1.6% | viability, T/C (second compound 0.3 µM, first compound 0.949 µM) 0.9% | viability, T/C (second compound 0.3 µM, first compound 3 µM) 0.73%
89.3 nM: IC50 (second compound 0.003 µM)
